# Reference: patent US8658791B2, “2-substituted-6-amino-5-alkyl, alkenyl or alkynyl-4-pyrimidinecarboxylic acids and 6-substituted-4-amino-3-alkyl, alkenyl or alkynyl picolinic acids and their use as herbicides” (Dow AgroSciences, LLC, priority 2007, dated 2014)
# Structures can show the parent of a compound that is named as a salt.
# Legend:
# [1] = tested on: wild poinsettia (Euphorbia heterophylla); assay: General postemergence herbicidal activity, EPHHL; assay type: in vivo; conditions: postemergence spray, visual score after 14 days, 0 = no injury, 100 = complete kill; for pest or weed control at 280 g/ha / pest or weed control at 70 g/ha / pest or weed control at 140 g/ha: Euphorbia heterophylla, post-emergence, 336 h, read-out: Post-emergent Weed Control EPHHL; for pest or weed control at 280 g/ha: 280 g ai/ha; for pest or weed control at 140 g/ha: 140 g ai/ha
# Protocol: (§1) Seeds or nutlets of the desired test plant species were planted in Sun Gro MetroMix® 306 planting mixture, which typically has a pH of 6.0 to 6.8 and an organic matter content of about 30 percent, in plastic pots with a surface area of 103 square centimeters. When required to ensure good germination and healthy plants, a fungicide treatment and/or other chemical or physical treatment was applied. The plants were grown for 7-21 days in a greenhouse with an approximate 15 hour photoperiod which was maintained at about 23-29° C. during the day and 22-28° C. during the night. Nutrients and water were added on a regular basis and supplemental lighting was provided with overhead metal halide 1000-Watt lamps as necessary. The plants were employed for testing when they reached the first or second true leaf stage.
# (§2) A weighed amount, determined by the highest rate to be tested, of each test compound was placed in a 25 mL glass vial and was dissolved in 4 mL of a 97:3 v/v (volume/volume) mixture of acetone and dimethyl sulfoxide (DMSO) to obtain concentrated stock solutions. […] The concentrated stock solutions obtained were diluted with 20 mL of an aqueous mixture containing acetone, water, isopropyl alcohol, DMSO, Atplus 411F crop oil concentrate, and Triton® X-155 surfactant in a 48.5:39:10:1.5:1.0:0.02 v/v ratio to obtain spray solutions containing the highest application rates. Additional application rates were obtained by serial dilution of 12 mL of the high rate solution into a solution containing 2 mL of 97:3 v/v (volume/volume) mixture of acetone and dimethyl sulfoxide (DMSO) and 10 mL of an aqueous mixture containing acetone, water, isopropyl alcohol, DMSO, Atplus 411F crop oil concentrate, and Triton X-155 surfactant in a 48.5:39:10:1.5:1.0:0.02 v/v ratio to obtain 1/2X, 1/4X, 1/8X and 1/16X rates of the high rate. Compound requirements are based upon a 12 mL application volume at a rate of 187 L/ha. Formulated compounds were applied to the plant material with an overhead Mandel track sprayer equipped with a 8002E nozzles calibrated to deliver 187 L/ha over an application area of 0.503 square meters at a spray height of 18 inches (43 cm) above the average plant canopy height. Control plants were sprayed in the same manner with the solvent blank.
# (§3) The treated plants and control plants were placed in a greenhouse as described above and watered by sub-irrigation to prevent wash-off of the test compounds. After 14 days, the condition of the test plants as compared with that of the untreated plants was determined visually and scored on a scale of 0 to 100 percent where 0 corresponds to no injury and 100 corresponds to complete kill.
# [2] = tested on: barnyardgrass (Echinochloa crus-galli); assay: General postemergence herbicidal activity, ECHCG; assay type: in vivo; conditions: postemergence spray, visual score after 14 days, 0 = no injury, 100 = complete kill; for pest or weed control at 280 g/ha / pest or weed control at 70 g/ha / pest or weed control at 140 g/ha: Echinochloa crus-galli, post-emergence, 336 h, read-out: Post-emergent Weed Control ECHCG; for pest or weed control at 280 g/ha: 280 g ai/ha; for pest or weed control at 140 g/ha: 140 g ai/ha
# Protocol: as §1, §2, §3
# [3] = tested on: velvetleaf (Abutilon theophrasti); assay: General postemergence herbicidal activity, ABUTH; assay type: in vivo; conditions: postemergence spray, visual score after 14 days, 0 = no injury, 100 = complete kill; for pest or weed control at 280 g/ha / pest or weed control at 70 g/ha / pest or weed control at 140 g/ha: Abutilon theophrasti, post-emergence, 336 h, read-out: Post-emergent Weed Control ABUTH; for pest or weed control at 280 g/ha: 280 g ai/ha; for pest or weed control at 140 g/ha: 140 g ai/ha
# Protocol: as §1, §2, §3
# rice (Oryza sativa) = assay: General postemergence herbicidal activity, ORYSA; assay type: in vivo; conditions: postemergence spray, visual score after 14 days, 0 = no injury, 100 = complete kill; for plant injury at 280 g/ha / plant injury at 70 g/ha / plant injury at 140 g/ha: Oryza sativa, post-emergence, 336 h, read-out: Post-emergent Weed Control ORYSA; for plant injury at 280 g/ha: 280 g ai/ha; for plant injury at 140 g/ha: 140 g ai/ha
# Protocol: as §1, §2, §3
# [4] = tested on: lambsquarter (Chenopodium album); assay: General postemergence herbicidal activity, CHEAL; assay type: in vivo; conditions: postemergence spray, visual score after 14 days, 0 = no injury, 100 = complete kill; for pest or weed control at 280 g/ha / pest or weed control at 70 g/ha / pest or weed control at 140 g/ha: Chenopodium album, post-emergence, 336 h, read-out: Post-emergent Weed Control CHEAL; for pest or weed control at 280 g/ha: 280 g ai/ha; for pest or weed control at 140 g/ha: 140 g ai/ha
# Protocol: as §1, §2, §3
compound,measurement,setting,value
"C=Cc1c(N)nc(-c2ccc(Cl)cc2)nc1C(=O)OC [Compound 6, 6-Amino-2-(4-chlorophenyl)-5-vinylpyrimidine-4-carboxylic acid methyl ester]",pest or weed control at 280 g/ha,[1],70%
same,pest or weed control at 280 g/ha,[2],80%
same,pest or weed control at 280 g/ha,[3],100%
same,plant injury at 280 g/ha,rice (Oryza sativa),0%
same,melting point,,164 to 167 °C
same,pest or weed control at 280 g/ha,[4],90%
"C=Cc1c(N)nc(-c2ccc(Cl)c(OC)c2)nc1C(=O)OC [Compound 7, 6-Amino-2-(4-chloro-3-methoxyphenyl)-5-vinylpyrimidine-4-carboxylic acid methyl ester]",pest or weed control at 280 g/ha,[1],70%
same,pest or weed control at 280 g/ha,[2],0%
same,pest or weed control at 280 g/ha,[3],60%
same,plant injury at 280 g/ha,rice (Oryza sativa),0%
same,melting point,,144 to 148 °C
same,pest or weed control at 280 g/ha,[4],95%
"C=Cc1c(N)nc(-c2cc(OC)c(Cl)cc2F)nc1C(=O)OC [Compound 8, 6-Amino-2-(4-chloro-2-fluoro-5-methoxyphenyl)-5-vinylpyrimidine-4-carboxylic acid methyl ester]",pest or weed control at 280 g/ha,[1],50%
same,pest or weed control at 280 g/ha,[2],100%
same,pest or weed control at 280 g/ha,[3],100%
same,plant injury at 280 g/ha,rice (Oryza sativa),0%
same,melting point,,161 to 164 °C
same,pest or weed control at 280 g/ha,[4],100%
"C/C=C\c1c(N)nc(-c2ccc(Cl)c(OC)c2F)nc1C(=O)OC [Compound 23, 6-Amino-2-(4-chloro-2-fluoro-3-methoxyphenyl)-5-((Z)-propenyl)pyrimidine-4-carboxylic acid methyl ester]",pest or weed control at 70 g/ha,[1]; 70 g ai/ha,100%
same,pest or weed control at 70 g/ha,[2]; 70 g ai/ha,95%
same,pest or weed control at 70 g/ha,[3]; 70 g ai/ha,85%
same,plant injury at 70 g/ha,rice (Oryza sativa); 70 g ai/ha,10%
same,melting point,,91 to 93 °C
same,pest or weed control at 70 g/ha,[4]; 70 g ai/ha,95%
"COc1c(Cl)ccc(-c2nc(N)c(C(C)OC)c(C(=O)O)n2)c1F (stereo not drawn) [Compound 40, 6-Amino-2-(4-chloro-2-fluoro-3-methoxyphenyl)-5-(1-methoxyethyl)pyrimidine-4-carboxylic acid]",pest or weed control at 280 g/ha,[1],100%
same,pest or weed control at 280 g/ha,[2],90%
same,pest or weed control at 280 g/ha,[3],85%
same,plant injury at 280 g/ha,rice (Oryza sativa),35%
same,melting point,,165 to 167 °C
same,pest or weed control at 280 g/ha,[4],100%
"C=Cc1c(N)nc(-c2ccc(Cl)c(OC)c2F)nc1C(=O)O [Compound 41, 6-Amino-2-(4-chloro-2-fluoro-3-methoxyphenyl)-5-vinylpyrimidine-4-carboxylic acid]",pest or weed control at 70 g/ha,[1]; 70 g ai/ha,100%
same,pest or weed control at 70 g/ha,[2]; 70 g ai/ha,100%
same,pest or weed control at 70 g/ha,[3]; 70 g ai/ha,100%
same,plant injury at 70 g/ha,rice (Oryza sativa); 70 g ai/ha,65%
same,melting point,,167 to 168 °C
same,pest or weed control at 70 g/ha,[4]; 70 g ai/ha,100%
"C=Cc1c(N)nc(-c2ccc(Cl)c(F)c2F)nc1C(=O)O [Compound 44, 6-amino-2-(4-chloro-2,3-difluorophenyl)-5-vinylpyrimidine-4-carboxylic acid]",pest or weed control at 70 g/ha,[1]; 70 g ai/ha,100%
same,pest or weed control at 70 g/ha,[2]; 70 g ai/ha,100%
same,pest or weed control at 70 g/ha,[3]; 70 g ai/ha,100%
same,plant injury at 70 g/ha,rice (Oryza sativa); 70 g ai/ha,15%
same,melting point,,170 to 172 °C
same,pest or weed control at 70 g/ha,[4]; 70 g ai/ha,100%
"C=Cc1c(N)nc(-c2cc(F)c(Cl)cc2F)nc1C(=O)O [Compound 46, 6-Amino-2-(4-chloro-2,5-difluorophenyl)-5-vinylpyrimidine-4-carboxylic acid]",pest or weed control at 140 g/ha,[1],95%
same,pest or weed control at 140 g/ha,[2],90%
same,pest or weed control at 140 g/ha,[3],90%
same,plant injury at 140 g/ha,rice (Oryza sativa),40%
same,melting point,,81 to 83 °C
same,pest or weed control at 140 g/ha,[4],100%
"C=Cc1c(N)nc(-c2ccc(Cl)c(N(C)C)c2F)nc1C(=O)O [Compound 51, 6-Amino-2-(4-chloro-3-dimethylamino-2-fluorophenyl)-5-vinylpyrimidine-4-carboxylic acid]",pest or weed control at 140 g/ha,[1],90%
same,pest or weed control at 140 g/ha,[2],95%
same,pest or weed control at 140 g/ha,[3],100%
same,plant injury at 140 g/ha,rice (Oryza sativa),60%
same,pest or weed control at 140 g/ha,[4],100%
"C=C(F)c1c(N)nc(-c2ccc(Cl)c(OC)c2F)nc1C(=O)O [Compound 52, 6-Amino-2-(4-chloro-2-fluoro-3-methoxyphenyl)-5-(1-fluorovinyl)pyrimidine-4-carboxylic acid]",pest or weed control at 140 g/ha,[1],100%
same,pest or weed control at 140 g/ha,[2],90%
same,pest or weed control at 140 g/ha,[3],95%
same,plant injury at 140 g/ha,rice (Oryza sativa),65%
same,pest or weed control at 140 g/ha,[4],95%
"CCc1c(N)nc(-c2ccc(Cl)c(OC)c2F)nc1C(=O)O [Compound 54, 6-Amino-2-(4-chloro-2-fluoro-3-methoxyphenyl)-5-ethylpyrimidine-4-carboxylic acid]",pest or weed control at 280 g/ha,[1],100%
same,pest or weed control at 280 g/ha,[2],90%
same,pest or weed control at 280 g/ha,[3],90%
same,plant injury at 280 g/ha,rice (Oryza sativa),0%
same,pest or weed control at 280 g/ha,[4],100%
"C#Cc1c(N)nc(-c2ccc(Cl)c(OC)c2F)nc1C(=O)O [Compound 56, 6-Amino-2-(4-chloro-2-fluoro-3-methoxyphenyl)-5-ethynylpyrimidine-4-carboxylic acid]",pest or weed control at 140 g/ha,[1],90%
same,pest or weed control at 140 g/ha,[2],75%
same,pest or weed control at 140 g/ha,[3],80%
same,plant injury at 140 g/ha,rice (Oryza sativa),0%
same,pest or weed control at 140 g/ha,[4],95%
"COc1c(Cl)ccc(-c2cc(N)c(C)c(C(=O)O)n2)c1F [Compound 58, 4-Amino-6-(4-chloro-2-fluoro-3-methoxyphenyl)-3-methylpyridine-2-carboxylic acid]",pest or weed control at 280 g/ha,[1],90%
same,pest or weed control at 280 g/ha,[2],50%
same,pest or weed control at 280 g/ha,[3],90%
same,plant injury at 280 g/ha,rice (Oryza sativa),0%
same,pest or weed control at 280 g/ha,[4],50%
"C=Cc1c(N)nc(-c2ccc(Cl)c(OC)c2F)nc1C(=O)O [Compound 63, triethylamine salt of 6-amino-2-(4-chloro-2-fluoro-3-methoxyphenyl)-5-vinylpyrimidine-4-carboxylic acid]",Post-emergent Weed Control EPHHL,[1]; 70 g ai/ha,100%
same,Post-emergent Weed Control ECHCG,[2]; 70 g ai/ha,90%
same,Post-emergent Weed Control ABUTH,[3]; 70 g ai/ha,95%
same,Post-emergent Weed Control ORYSA,rice (Oryza sativa); 70 g ai/ha,75%
same,Post-emergent Weed Control CHEAL,[4]; 70 g ai/ha,100%
